Test results: US10071107B2, “Pharmaceutical composition for prevention, treatment or delay of Alzheimer's disease or dementia containing G protein-coupled receptor 19 agent as active ingredient” (SEOUL NATIONAL UNIVERSITY R&DB FOUNDATION, priority 2015, dated 2018)

Tests used:
[1] = test system: Alzheimer's mouse model (5×FAD); assay: Morris water maze (spatial learning, probe test); format: in vivo; conditions: 1 mg/kg twice a week, total 20 times
Description: [Experimental Method: Morris Water maze] An acryl-made platform having a diameter of 10 cm was installed in a circular water tank having a size of diameter×height=150 cm×80 cm and a camera was installed at the center of the water tank on the ceiling where the water tank was placed. Around the water tank, a horizontal cue, a vertical grid cue, and a circular object cue were disposed, respectively. For the experimental preparation, water at about 26° C. was filled in the water tank up to a height of about 1 cm from the top of the platform and a white water paint was dissolved.
At a first experimental day, the mouse was flooded at one position of the prepared water tank and swam for 3 minutes and then induced to move to the platform location by an experimenter's hand after 3 minutes and left for 1 minute on the platform. After 1 minute, the mouse was lifted and covered by both hands and put in a cage again after 1 minute. This process was repeated three times. […] The process was repeated everyday until a difference between mouse groups was decreased. At the final experimental day, the mouse was flooded in the water tank after removing the platform in the water tank and a video for 90 seconds was recorded and then a moving path and the number of platform pass times of the mouse in the water tank, a time latency of the platform location, and the like were analyzed by using analysis software.
After 1 mg/kg of PBS or sodium taurodeoxycholate was injected to a control mouse and an Alzheimer's mouse (4 per group) twice a week and a total of 20 times, a result of evaluation a spatial learning ability through a water maze experiment was illustrated in FIG. 2. It was verified that a time required when the Alzheimer's mouse found the platform was shortened by administrating the sodium taurodeoxycholate drug.
After 1 mg/kg of PBS or sodium taurodeoxycholate was injected to a control mouse and an Alzheimer's mouse (more than 10 per group) twice a week and a total of 20 times, a mouse behavior pattern was tracked in the water tank without the platform. A representative image of the result of tracking the mouse movement in the water tank without the platform was illustrated in FIG. 3.
In the above experiment, the result of measuring the number of times when the mouse crossed the platform location and a time latency at the platform location was illustrated in FIG. 4 and in the sodium taurodeoxycholate administration mouse group, it was verified that the degree of memorizing the platform was high.

[2] = test system: Alzheimer's animal model (5×FAD); format: in vivo, mouse; conditions: 1 mg/kg twice a week, total 20 times
[3] = test system: Alzheimer's animal model (5×FAD); assay: TUNEL staining of apoptotic region in brain tissue; format: in vivo, mouse; conditions: frontal cortex, FIG. 8
Description: [Experimental Method: Tissue fluorescent staining] A mouse was anesthetized, the limbs were fixed and then the mouse was cut to expose the heart by scissors and tweezers. The upper right atrium was slightly cut by the scissors and punctured, a needle was put in the left ventricle, and PBS was injected and perfused. When the colors of the blood vessel and the organs turned to white, a 4% paraformaldehyde (PFA) solution was replaced and injected until muscle contraction occurred and the soles were hard. […] The cut tissue piece was attached on the slide by using a brush and blocked for preventing a nonspecific antibody binding, and then reacted with a specific antibody (coupled with a fluorescence) to a protein to be reported. […] The photographed image was converted into numeral values by measuring the fluorescent strength for each fluorescence by analysis software.
The brain tissue of the Alzheimer's model mouse administrated with the drug was extracted and a reduction of the lesion such as an apoptotic lesion in the frontal cortex and the hippocampus area was measured by fluorescent-staining, and the result was illustrated in FIG. 8. The PBS or sodium taurodeoxycholate was administrated in the Alzheimer's mouse and a region damaged by apoptosis in the frontal cortex of the administrated mouse was analyzed by TUNEL staining. […]

Alzheimer's animal model [4] = assay: Blood analysis of inflammatory substances (bioplex); format: in vivo, mouse; conditions: 1 mg/kg twice per week, total 20 times; FIG. 9
Description: [Experimental Method: Blood analysis] The blood was obtained from the mouse by cardiac blood collection or orbital blood collection. For analyzing the inflammatory substance, the obtained blood was left for 2 hours at room temperature and centrifuged, a supernatant was taken, and each inflammatory substance was quantitatively analyzed by using a kit and equipment for bioplex. In order to analyze biochemical and hematopoietic cells, the obtained blood was put in an appropriate tube or container and applied to a biochemical analyzer and a hematology analyzer, respectively, to obtain data. FIG. 9 illustrates a result of analyzing an inflammatory substance in the blood by extracting the blood of the mouse after 1 mg/kg of PBS or sodium taurodeoxycholate is injected to a control mouse and an Alzheimer's mouse twice per week and a total of 20 times.

Alzheimer's animal model [5] = assay: Blood analysis of biochemical components (metabolites); format: in vivo, mouse; conditions: 1 mg/kg twice per week, total 20 times; FIG. 10
Description: [Experimental Method: Blood analysis] The blood was obtained from the mouse by cardiac blood collection or orbital blood collection. For analyzing the inflammatory substance, the obtained blood was left for 2 hours at room temperature and centrifuged, a supernatant was taken, and each inflammatory substance was quantitatively analyzed by using a kit and equipment for bioplex. In order to analyze biochemical and hematopoietic cells, the obtained blood was put in an appropriate tube or container and applied to a biochemical analyzer and a hematology analyzer, respectively, to obtain data. After 1 mg/kg of PBS or sodium taurodeoxycholate is injected to the control mouse and the Alzheimer's mouse twice per week and a total of 20 times, the blood of the mouse was extracted and then the biochemical components in the blood were analyzed. The result was illustrated in FIG. 10.

[6] = probe test without platform, FIG. 4

C[C@H](CCC(=O)NCCS(=O)(=O)[O-])[C@H]1CC[C@H]2[C@@H]3CC[C@@H]4C[C@H](O)CC[C@]4(C)[C@H]3C[C@H](O)[C@]12C.[Na+] [sodium taurodeoxycholate]
number of times of crossing the platform location [1, 6]: significantly increased | time latency at the platform location [1, 6]: significantly increased | time required when the Alzheimer's mouse found the platform ([1]; water maze, FIG. 2): shortened | moving pattern to the position of the platform ([1]; water tank without platform, FIG. 3): more actively observed | degree of memorizing the platform ([1]; water tank without platform, FIG. 4): high | expression of iNOS ([2]; frontal cortex area, FIG. 7): significantly reduced | cell distribution of astrocyte ([2]; frontal cortex, FIGS. 5 and 6): significantly reduced | cell distribution of microglia ([2]; frontal cortex, FIGS. 5 and 6): significantly reduced | formation of the amyloid β plague ([2]; frontal cortex, FIGS. 5 and 6): significantly reduced | astrocyte cell distribution ([2]; hippocampus area, FIGS. 5 and 6): significantly reduced | apoptotic region in the brain tissue [3]: reduced | amount of CCL3 in the blood (Alzheimer's animal model [4]): increased | amount of glucose in the blood (Alzheimer's animal model [5]): decreased
